The text below walks through data of ChEMBL document CHEMBL1201862, “PubChem BioAssay data set” (2004).

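Results reflect a 48-hour exposure of cells in 96-well plates to compound at five concentrations. GI50 marks 50% less growth.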 The source made the active and inactive calls. No stated cut-off is given here; in the data, active = GI50 up to about 1.1 µM and inactive = higher.

Test systems include UACC-62; HCT-15; Malme-3M; TK-10; SK-MEL-28; UACC-257; A549; K562; A498; SR; LOX IMVI; HL-60; OVCAR-3; SW-620; SNB-19; COLO 205.
Test in all cases: NCI anticancer screen, dose series, 48 h

In the case of `O=C(CC(=O)n1nc(-c2ccccc2)c(/N=N/c2ccc(Cl)cc2)c1-c1ccccc1)Nc1ccc(Cl)cc1`, the GI50 in the assay on UACC-62 was > 100 µM (inactive); in the assay on HCT-15, more than 41.7 µM; with Malme-3M, > 100 µM (inactive); with TK-10, > 61.1 µM (inactive); in the assay with SK-MEL-28, > 100 µM (inactive); with UACC-257, > 49.2 µM (inactive). The GI50 in the assay with A549 is > 43.9 µM (inactive); in the assay on K562, > 41.7 µM (inactive); in the assay with A498, > 100 µM (inactive); with SR it was > 100 µM (inactive); with LOX IMVI it was > 41.5 µM (inactive); in the assay with HL-60, > 100 µM (inactive). Moreover, the GI50 with OVCAR-3 is > 100 µM (inactive); in the assay on SW-620, > 44.1 µM (inactive); with SNB-19, > 100 µM (inactive); with COLO 205, > 46.9 µM (inactive).

As to `CCOC(=O)C1=C(Nc2ccc(Cl)cc2Cl)OC/C1=N\NS(=O)(=O)c1ccc(C)cc1`, the GI50 in the assay on UACC-62 is 92.9 µM (inactive); with HCT-15 it was more than 100 µM; in the assay on Malme-3M, > 100 µM (inactive); in the assay with TK-10, > 100 µM (inactive); in the assay on SK-MEL-28, > 100 µM (inactive); with UACC-257 it was > 100 µM (inactive). Further, the GI50 in the assay with A549, in the assay on K562, with A498, in the assay on SR, with LOX IMVI and with HL-60 was > 100 µM (inactive) in each case. For the same compound, the GI50 was 41.2 µM (inactive) in the assay with OVCAR-3, > 100 µM (inactive) in the assay on SW-620, > 100 µM (inactive) with SNB-19 and > 100 µM (inactive) in the assay with COLO 205.

Take `Cc1ccccc1C(=O)c1c(O)c2c(c(O)c1Br)CCCC2`: the GI50 was 15.1 µM (inactive) in the assay on UACC-62; 16.7 µM in the assay with HCT-15; 11.5 µM (inactive) with Malme-3M; 17.8 µM (inactive) in the assay on TK-10; 14.7 µM (inactive) in the assay on UACC-257; 23.2 µM (inactive) in the assay on A549. Further, the GI50 is 21.1 µM (inactive) in the assay on K562; 22.1 µM (inactive) in the assay with A498; 16.2 µM (inactive) in the assay on SR; 5.07 µM (inactive) with HL-60; 13.8 µM (inactive) with OVCAR-3; 18.7 µM (inactive) in the assay with SW-620. Also, the results for the GI50 with SNB-19 and in the assay on COLO 205 were 23 µM (inactive) and 18.9 µM (inactive), respectively.

Turning to `CCOC1=CP(=O)(OCC)CC(C)=C1Cl` (stereo not given), the GI50 in the assay on UACC-62, in the assay on Malme-3M, in the assay with TK-10, with SK-MEL-28, with UACC-257 and with A549 was > 100 µM (inactive) in each case. For the same compound, the GI50 with K562, with A498, in the assay with SR, with LOX IMVI, in the assay with HL-60 and in the assay with OVCAR-3 was > 100 µM (inactive) throughout. For the same compound, the GI50 is > 100 µM (inactive) with SW-620, > 100 µM (inactive) with SNB-19 and 7.21 µM (inactive) in the assay on COLO 205.

Turning to `COC(=O)C1CCC[C@H]2C(CO)=C(C)C(=O)[C@@H]12` (stereo not given in full), the GI50 in the assay with UACC-62 is > 100 µM (inactive); in the assay on HCT-15, more than 100 µM; in the assay with Malme-3M, > 100 µM (inactive); in the assay on TK-10, > 100 µM (inactive); in the assay with SK-MEL-28, > 100 µM (inactive); in the assay on UACC-257, > 100 µM (inactive). For the same compound, the GI50 with A549, with K562, with A498, with SR, in the assay on HL-60 and in the assay with SW-620 was > 100 µM (inactive) throughout. Moreover, the GI50 in the assay on SNB-19 and in the assay with COLO 205 was > 100 µM (inactive) throughout.

For `N#C/N=C(/N)NCO`, the GI50 in the assay on UACC-62 was > 100 µM (inactive); in the assay with HCT-15 it was more than 40 µM; in the assay with Malme-3M, > 100 µM (inactive); in the assay with TK-10, > 100 µM (inactive); with SK-MEL-28, > 100 µM (inactive); with UACC-257, > 100 µM (inactive). In addition, the GI50 in the assay with A549 is > 57.4 µM (inactive); with K562 it was > 76 µM (inactive); in the assay with A498, > 100 µM (inactive); in the assay with SR it was 9.29 µM (inactive); in the assay with LOX IMVI, > 39.9 µM (inactive); with HL-60 it was > 100 µM (inactive). The GI50 was > 100 µM (inactive) in the assay on OVCAR-3, > 37.8 µM (inactive) in the assay on SW-620, > 100 µM (inactive) in the assay on SNB-19 and > 42.1 µM (inactive) with COLO 205.

For the compound `CS/C(=N\C(=S)N(C)C)N(c1ccccc1)c1nc(N(C)C)s[s+]1`, the GI50 was 4.88 µM (inactive) in the assay on UACC-62; 19.8 µM in the assay on HCT-15; 2.34 µM (inactive) in the assay with Malme-3M; 40.3 µM (inactive) with TK-10; 2.21 µM (inactive) with SK-MEL-28; 3.95 µM (inactive) in the assay with UACC-257. Moreover, the GI50 was 3.84 µM (inactive) with A549; 2.56 µM (inactive) in the assay on K562; 1.9 µM (inactive) in the assay with A498; 3.98 µM (inactive) in the assay with SR; 5.74 µM (inactive) with LOX IMVI; 1.61 µM (inactive) with HL-60. For the same compound, the GI50 with OVCAR-3 is 10.8 µM (inactive); in the assay with SW-620 it was 4.05 µM (inactive); in the assay with SNB-19, 32.6 µM (inactive); in the assay on COLO 205, 2 µM (inactive).

As to `COC1/C(=C\c2ccccc2I)c2ccccc2N1C(C)=O` (stereo not given), the GI50 in the assay with UACC-62 was 13 µM (inactive); in the assay with HCT-15, 14.2 µM; with SK-MEL-28, 17.3 µM (inactive); in the assay with UACC-257, 18.3 µM (inactive); with A549, 16 µM (inactive); with K562 it was 15.6 µM (inactive). Moreover, the GI50 is 15.8 µM (inactive) in the assay on A498; 14.4 µM (inactive) in the assay on SR; 3.46 µM (inactive) in the assay on HL-60; 16.6 µM (inactive) with OVCAR-3; 20.6 µM (inactive) in the assay with SW-620; 22.6 µM (inactive) in the assay on SNB-19. Moreover, the GI50 with COLO 205 is 17.6 µM (inactive).

With `C#Cc1c(C)c(/C=C/C(C)=C/C=C/C(C)=C/C(=O)OC)n(C)c1C`, the GI50 with UACC-62 was 62.5 µM (inactive); in the assay with HCT-15, more than 100 µM; in the assay with Malme-3M, > 100 µM (inactive); with TK-10 it was > 100 µM (inactive); in the assay with SK-MEL-28, > 100 µM (inactive); in the assay with UACC-257, > 100 µM (inactive). The GI50 in the assay with A549, with K562, with SR, in the assay on LOX IMVI, with HL-60 and with OVCAR-3 was > 100 µM (inactive) each time. The GI50 in the assay with SW-620, in the assay with SNB-19 and with COLO 205 was > 100 µM (inactive) each time.

As to `CC1=C[C@@H]2Cc3occc3C(C)(C)[C@@H]2CC1`, the GI50 in the assay on UACC-62 was > 10 µM (inactive); in the assay on Malme-3M, 20 µM (inactive); in the assay on TK-10 it was 22.4 µM (inactive); in the assay on SK-MEL-28 it was 24 µM (inactive); in the assay with UACC-257, 22.5 µM (inactive); in the assay on A549 it was 22.9 µM (inactive). The GI50 in the assay on K562 is 21.1 µM (inactive); in the assay on A498, 21.8 µM (inactive); in the assay on SR it was 14.5 µM (inactive); with LOX IMVI, 19.2 µM (inactive); with HL-60, 19.3 µM (inactive); with OVCAR-3 it was 17.7 µM (inactive). Further, the GI50 in the assay on SW-620 is 17.1 µM (inactive); in the assay with SNB-19, > 10 µM (inactive); in the assay with COLO 205, 18.9 µM (inactive).

Regarding `CCOC(=O)C1=C(C)N(NC(N)=O)C(C)(O)C12CCOC2=O` (stereo not given), the GI50 in the assay on UACC-62 was > 100 µM (inactive); in the assay on HCT-15, more than 100 µM; with Malme-3M, > 100 µM (inactive); in the assay with SK-MEL-28, > 100 µM (inactive); in the assay on UACC-257, > 100 µM (inactive); with A549, > 100 µM (inactive). Also, the GI50 in the assay with K562, in the assay on A498, in the assay with SR, in the assay with LOX IMVI, with HL-60 and with OVCAR-3 was > 100 µM (inactive) throughout. Also, the GI50 in the assay with SW-620 and with SNB-19 was > 100 µM (inactive) in each case.

As for `Cc1cc(Cl)cc2c1NC(=O)C2(O)C(C)C(=O)c1ccc(Cl)cc1` (stereo not given), the GI50 with UACC-62 is 20.2 µM (inactive); with HCT-15, more than 89.1 µM; in the assay on Malme-3M, > 61.7 µM (inactive); in the assay with TK-10, > 100 µM (inactive); in the assay with SK-MEL-28 it was > 62.1 µM (inactive); with UACC-257, 42.6 µM (inactive). For the same compound, the GI50 in the assay with A549 was > 100 µM (inactive); with K562 it was > 58.9 µM (inactive); in the assay on A498 it was > 57.7 µM (inactive); in the assay with SR, > 66.2 µM (inactive); in the assay on LOX IMVI, > 100 µM (inactive); with HL-60, 3.15 µM (inactive). For the same compound, the GI50 is 49.9 µM (inactive) in the assay with OVCAR-3, > 74.8 µM (inactive) in the assay with SW-620, > 100 µM (inactive) in the assay on SNB-19 and 97.1 µM (inactive) in the assay with COLO 205.

As for `COC(=O)/C(=N/O)C(C(=O)OC)C(=O)C(=O)Nc1c(Cl)cc(C)cc1S(=O)(=O)O` (stereo not given), the GI50 was > 100 µM (inactive) in the assay on UACC-62; more than 100 µM in the assay with HCT-15; > 100 µM (inactive) in the assay on Malme-3M; > 100 µM (inactive) with TK-10; > 100 µM (inactive) in the assay with SK-MEL-28; > 100 µM (inactive) in the assay on UACC-257. For the same compound, the GI50 was > 100 µM (inactive) with A549; 67 µM (inactive) in the assay on K562; > 100 µM (inactive) in the assay on A498; 20.1 µM (inactive) in the assay with SR; 41 µM (inactive) in the assay on LOX IMVI; > 100 µM (inactive) in the assay with HL-60. For the same compound, the GI50 with OVCAR-3, in the assay with SNB-19 and in the assay with COLO 205 was > 100 µM (inactive) each time.
